Data taken from patent US6677383B1, “Hydroxylation activated prodrugs” (De Montfort University, priority 1998, dated 2004).
Read-outs that look alike come from different tables or passages of the source.

What was measured:
[1] = MTT cytotoxicity assay, parental cell line not expressing CYP1B1; conditions: Chinese hamster, V79mz cells (parental line that does not express CYP1B1)
Description: (§1) The cytotoxicity assay method used was a modification of the MTT cytotoxicity assay (Carmichael et al., 1987, Cancer Research, 47: 936). […] Compound stocks were made up as 100 mM in DMSO and stored for no more than one month at 4° C. The plates were then incubated at 37° C., 5% CO2, 100% humidity for a further 48 hours followed by washing by immersion 3 times in Dulbecco's PBS (phosphate buffered saline) A. 50 μl of RPMI 1640 w/o phenol red (Roswell Park Memorial Institute Medium 1640, Life Science International) with 2 mg/ml MTT was then added for four hours as above, excess MTT removed by aspiration and 125 μl of DMSO added on a vortex for 30 minutes to solubilize the product. The absorbance at A450 was recorded and the results expressed as a % survival of carrier only treated controls.

[2] = MTT cytotoxicity assay, cell line expressing CYP1B1; conditions: Chinese hamster, V79mzhu1B1 cells (V79 cells that express CYP1B1)
Description: as §1

[3] = system: V79mzhu1B1 cells (express the enzyme CYP1B1); assay: as above; conditions: V79 IC50 versus V791B1 IC50
Description: as §1

[4] = target: T1, CYP1B1 (microsomal preparation of human tumour tissue expressing the CYP1B1 enzyme) (Homo sapiens, UniProt Q16678); assay: Metabolism studies with microsomal preparation of human tumour tissue, HPLC detection of the hydroxylated metabolite; conditions: tumour microsomes, NADPH, pH 7.6, 1 hour at 37° C., confirmed by synthesis of authentic metabolite
T1 sequence (Q16678 1-543): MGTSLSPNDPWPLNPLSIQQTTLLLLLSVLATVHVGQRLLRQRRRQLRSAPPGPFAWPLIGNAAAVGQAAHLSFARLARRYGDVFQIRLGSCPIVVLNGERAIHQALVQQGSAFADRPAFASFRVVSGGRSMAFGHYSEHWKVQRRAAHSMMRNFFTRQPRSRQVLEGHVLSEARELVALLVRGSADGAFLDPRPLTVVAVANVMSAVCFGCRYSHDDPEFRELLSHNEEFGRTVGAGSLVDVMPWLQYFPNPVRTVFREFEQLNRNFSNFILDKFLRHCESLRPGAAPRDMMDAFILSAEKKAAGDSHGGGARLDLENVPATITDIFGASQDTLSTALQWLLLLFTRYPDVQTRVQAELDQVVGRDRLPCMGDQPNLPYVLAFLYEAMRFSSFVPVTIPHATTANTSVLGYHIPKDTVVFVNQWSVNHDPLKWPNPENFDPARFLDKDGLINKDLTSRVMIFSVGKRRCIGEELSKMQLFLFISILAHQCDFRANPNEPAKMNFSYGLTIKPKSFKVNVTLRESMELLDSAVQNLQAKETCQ
Description: (§2) A microsomal preparation of human tumour tissue expressing the CYP1B1 enzyme was prepared essentially as described by the method of Barrie et al. (1989. J. Steroid Biochem., 6: 1191-1195)
(§3) Experiment were carried out at 37° C., under yellow light.
(§4) An array of 1.5 ml centrifuge tubes were set up in a water bath shaker under aerobic conditions. To each tube was then added 500 μl of pH 7.6 buffer (0.1 M NaK2PO4), followed by NADPH (5 μl of a 25 mM stock solution). The microsomal preparation (80 μl) was then added and the tubes preincubated for 5 minutes at 37° C. The prodrug substrate was then added (10 μl of a 5 mM stock solution) and incubated for 1 hour at 37° C. After 1 hour the tubes were transferred to an ice/water cooling bath (0° C.). The tubes were then centrifuged at 1 5,000 rpm for 30 minutes. A sample of the supernatant (100 μl) was then taken and analysed by HPLC.
(§5) HPLC conditions: Spherisorb C18 (25 cm×4.6 mm id), used without guard column. Flow rate 1 ml/min. Eluent 75% 0.1 M KH2PO4 and 25% acetonitrile.

[5] = target: T1, CYP1B1 (microsomal preparation of human tumour tissue expressing the CYP1B1 enzyme); conditions: pH 7.6
Description: as §2, §3, §4, §5

[6] = system: V79mz cells (parental cell line which does not express CYP1B1)
Description: as §1

[7] = system: V79mzhu1B1 cells (express the enzyme CYP1B1)
Description: as §1

Compound | IC50 at 48 h [1] [nM] | IC50 at 48 h [2] [nM] | aromatic hydroxylation to hydroxylated metabolite [4] | also measured
COc1cc(C(=O)/C=C/c2ccc(O)cc2)cc(OC)c1OC [Compound VIII, (E)-1-(4-Hydroxyphenyl)-3-(3,4,5-trimethoxyphenyl)prop-1-en-3-one] | 1810 | 1710 | – | –
COc1ccc(/C=C/C(=O)c2cc(OC)c(OC)c(OC)c2)cc1 [Compound VII, (E)-1-(4-Methoxyphenyl)-3-(3,4,5-trimethoxyphenyl)prop-1-en-3-one] | 1000 | 5 | converted to the hydroxylated metabolite (E)-1-(3-Hydroxy4-methoxyphenyl)-3-(3,4,5-trimethoxyphenyl)prop-1-en-3-one | fold more cytotoxic to the cell line expressing CYP1B1 than to the parental cell line not expressing this enzyme [3]: around 200 fold
Oc1ccc(/C=C/c2cc(O)cc(O)c2)cc1 [Compound IIIc, (E)-(3,4′,5)-trihydroxystilbene] | – | – | – | aromatic hydroxylation to hydroxylated metabolite [5]: converted to the hydroxylated metabolite (E)-(3,3′,4,5′)-tetrahydroxystilbene
COc1ccc(/C=C(\C#N)c2cccnc2)cc1 [Compound IIa, (Z)-1-Cyano-1-(3-pyridyl)-2-(4-methoxyphenyl)ethene] | 1810 | 1630 | converted to the hydroxylated metabolite (Z)-1-Cyano-1-(3-pyridyl)-2-(3-hydroxy-4-methoxyphenyl)ethene | –
COc1ccc(/C=C/c2ccc(OC)cc2)cc1 [Compound IIIb, (E)-(4,4′)-Dimethoxystilbene] | – | – | – | IC50 [6]: 58200 nM; IC50 [7]: 8300 nM
